# Measured values published in article PMC12388496, “Discovery of (E)-1,3-Diphenyl-2-Propen-1-One Derivatives as Potent and Orally Active NLRP3 Inflammasome Inhibitors for Colitis” (Molecules, 2025).
# Tests used:
# BMDM cells = assay: MitoTracker/MitoSOX staining and ROS detection (DCFH-DA flow cytometry) in BMDMs; type: cell-based, mouse; details: LPS and Nigericin
# From the text: Mitochondrial dysfunction and excessive production of reactive oxygen species (ROS) are key upstream signaling events in the activation of the NLRP3 inflammasome. To investigate whether compound F14 affects mitochondrial damage and ROS production, we performed staining experiments using MitoTracker and MitoSOX, followed by imaging and analysis using a confocal microscope. […] To further verify the effect of F14 on ROS levels, we used flow cytometry to measure intracellular ROS levels in BMDM cells stimulated with Nigericin.
# BMDMs were seeded at a density of 1.0 × 10^6 cells per well in a 6-well plate, and the cell treatment was performed as described above. DCFH-DA probe was added to each well at a 1:1000 dilution (prepared in serum-free medium), and the cells were incubated at 37 °C in the dark for 20 min. The cells were gently mixed every 5 min to ensure uniform probe penetration. The cells were washed three times with PBS, and ROS levels were measured using flow cytometry (excitation/emission wavelengths: 488/525 nm).
# [1] = MTT assay, HepaRG cytotoxicity; type: cell-based; details: human, HepaRG cells, n = 3
# Protocol: HepaRG cells in the logarithmic growth phase (10^5 cells/mL), inoculate them into a 96-well plate, and culture overnight in a 37 °C, 5% CO2 incubator. Add compounds at different concentrations and continue culturing for 24 h. Add 20 μL of MTT solution, incubate for 4 h, discard the supernatant, and add DMSO to dissolve.
# [2] = tested on: IL-1β secretion in THP-1 cells (NLRP3 inflammasome); assay: Inhibition of IL-1β secretion in THP-1 cells; type: cell-based; details: Homo sapiens, three independent experiments
# Protocol: Through SAR analysis, we identified compound F14 as the target compound for further investigation. To further validate its activity, the half-inhibitory concentration (IC50) of compound F14 for IL-1β release was determined in the BMDM model. […] To more comprehensively assess the potential of compound F14, we further evaluated its inhibition of IL-1β in THP-1 cells.
# Figure 3 F14 inhibits the secretion of IL-1β. (A) Detection of F14 inhibition of IL-1 β secretion in BMDM cells; (B) Detection of F14 inhibition of IL-1 β secretion in THP-1 cells. IC50 calculation and dose-response curve fitting were performed using GraphPad Prism (8.0) software. All data were obtained from three independent experiments.
# [3] = tested on: DSS-induced acute colitis; assay: DSS-induced acute colitis in mice; type: in vivo, mouse; details: 10 and 20 mg/kg daily, gavage
# Protocol: To further validate the in vivo biological activity of compound F14, we used the DSS-induced mouse colitis model to assess its anti-inflammatory effects. The experimental design was as follows: mice were divided into the normal group, model group (DSS), positive control group (DSS + sulfasalazine), low-dose group (DSS + 10 mg/kg), and high-dose group (DSS + 20 mg/kg). Mice in the normal group were given regular water with no treatment; the positive control group received sulfasalazine as the positive drug at a daily dose of 200 mg/kg; the low-dose and high-dose groups were administered 10 mg/kg and 20 mg/kg of F14, respectively, each day. During the experiment, acute colitis in mice was induced by drinking water containing 3% DSS […]. The mice’s body weight changes, fecal blood presence, and disease activity index (DAI) were recorded daily. […] Goblet cells are a type of colon epithelial cell, and their primary function is to secrete mucus, which helps maintain the stability of the intestinal environment. During the pathological process of colitis, the number of goblet cells decreased, and their mucus-secreting function was impaired. In histological examinations, the number and secretion function of goblet cells are important indicators of colitis.
# Male C57BL/6 mice, 18–20 g, were purchased from Charles River (China). All experiments and animal care procedures were approved by the Animal Resource Center of Anhui Medical University by the National Institutes of Health Guide for the Care and Use of Laboratory Animals (20230875). This study used DSS induction to establish an acute colitis model in mice. Mice in the experimental group were given free access to a 3% DSS solution for 7 days to induce an intestinal inflammation phenotype. The positive control group (sulfasalazine, 200 mg/kg) and the treatment group were gavage administration daily, using a 0.5% carboxymethyl cellulose sodium (CMC-Na) solution as the drug vehicle. The normal control and model groups received an equal volume of blank CMC-Na solution. Daily monitoring of weight changes and clinical symptoms was performed during the experimental period, including fecal characteristics (formed/loose/watery stools) and the degree of rectal bleeding (occult blood/gross blood in feces). On day 10, at the end of the experiment, the colonic sections of the mice were carefully excised. The excised colon was examined, and the length of the colon was measured. Some colon tissues were fixed in 4% formaldehyde and used for HE staining and immunohistochemical analysis for subsequent evaluations.
# NLRP3 inflammasome = NLRP3 inflammasome activation by ATP, MSU and Nigericin in BMDMs (ELISA of IL-1β); type: cell-based, mouse; details: F14 10 μM; LPS-primed BMDMs stimulated with ATP, MSU or Nigericin
# From the text: (§1) The NLRP3 inflammasome can be activated by various stimuli, such as microbial toxins and urate crystals. This process plays a central role in the pathogenesis of many inflammatory diseases. To assess whether F14 exerts a broad-spectrum inhibitory effect on NLRP3 inflammasome activation, we used three different activators—ATP, MSU, and Nigericin to stimulate BMDMs. […] Among the inflammasome family, NLRC4 and AIM2 are also protein complexes involved in the innate immune response, playing key roles in inflammatory regulation during infection and tissue damage. Poly (dA:dT) was used to induce AIM2 activation, while S.typhi was employed to stimulate NLRC4 activation. […].
# (§2) The LPS concentration was 200 ng/mL to pretreat BMDM cells for 3 h, then F14 (10 μM) was added to treat the cells for 30 min, and then each inducer—Nigericin (10 μM, 0.5 h), ATP (2.5 mM, 0.5 h), MSU (150 μg/mL, 4 h), S.typhi (4 h), and poly-(dA:dT) (0.5 μg/mL, 4 h)—were added for stimulation. (A) F14 has a broad-spectrum inhibitory effect on NLRP3 inflammasome activation. (B) F14 has a specific inhibitory effect on NLRP3 inflammasome activation. Data are presented as the mean ± SEM (n = 3). *** p < 0.001 vs. the model group. NS, not significant.
# AIM2 inflammasome = AIM2 inflammasome activation induced by poly (dA:dT) in BMDMs; type: cell-based, mouse; details: F14 10 μM, LPS-primed BMDMs
# From the text: as §1, §2
smiles,measurement,setting,value
"Cc1ccc(C(=O)/C=C/c2cccc(O)c2)c(C)c1 [Compound F14, (E)-1-(2,4-dimethylphenyl)-3-(3-hydroxyphenyl)propyl-2-en-1-one]",mitochondrial membrane potential and fluorescence intensity of mitochondrial superoxide anions,"BMDM cells; MitoTracker, MitoSOX",no significant improvement
same,total ROS levels,BMDM cells; flow cytometry,no significant change
same,IC50 at 24 h,[1],> 50000 nM
same,IC50,[2],880 nM
same,colonic adhesion,[3]; DSS mice,effectively alleviated
same,goblet cells in colon tissue (histology),[3]; DSS mice,inhibits the reduction
same,disease activity index (DAI),[3]; vs model group (DSS),inhibits the increase
same,weight loss in mice,[3]; vs model group (DSS),significantly alleviates
same,protein expression levels of mature IL-1β (ELISA),NLRP3 inflammasome,significantly reduced
same,activation of AIM2 inflammasome,AIM2 inflammasome,no effect
